Several values for one entry are separate records, joined by “and”; a condition that tells them apart may be missing. Equal entries are not always repeated.
Key:
[1] = biological target: bile salt export pump (BSEP) (Homo sapiens, UniProt O95342); assay: In vitro inhibition of BSEP activity; assay type: in vitro ADME
[2] = Example 1: renal function (iohexol aGFR, serum creatinine, urine albumin); assay type: in vivo, human
CYP2C8 [3] = biological target: T1, CYP2C8 (Homo sapiens, UniProt P10632); assay: Ki determination in pooled human liver microsomes, amodiaquine N-deethylase (Example 5); assay type: in vitro ADME
T1 sequence (P10632 1-490): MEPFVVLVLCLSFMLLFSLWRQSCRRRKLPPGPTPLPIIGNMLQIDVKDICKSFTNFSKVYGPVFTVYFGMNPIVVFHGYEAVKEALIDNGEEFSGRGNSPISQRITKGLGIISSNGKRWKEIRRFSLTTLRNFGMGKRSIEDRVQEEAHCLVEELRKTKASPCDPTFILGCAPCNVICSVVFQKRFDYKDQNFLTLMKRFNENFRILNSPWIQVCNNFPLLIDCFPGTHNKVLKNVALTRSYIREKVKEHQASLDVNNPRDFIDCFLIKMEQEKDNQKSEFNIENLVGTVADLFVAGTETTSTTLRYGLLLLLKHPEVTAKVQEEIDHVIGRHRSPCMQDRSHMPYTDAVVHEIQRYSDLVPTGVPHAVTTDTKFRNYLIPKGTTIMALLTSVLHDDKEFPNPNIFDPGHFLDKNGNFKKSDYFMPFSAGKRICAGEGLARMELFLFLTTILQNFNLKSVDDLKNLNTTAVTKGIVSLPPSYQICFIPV
Method: (§1) The objective of this study was to evaluate in vitro the Ki of tucatinib of the following human hepatic cytochrome P450 (CYP) enzymes (CYP2C8, CYP2C9, and CYP3A4) and UGT1A1. […] Pooled human liver microsomes (HLM) from 150 individuals (79 males and 71 females) were obtained from BioreclamationIVT (Baltimore, Md.) and stored at approximately −70° C. The microsomes were characterized by the supplier for total protein and selected cytochrome P450 activities. […] The final organic solvent contribution was ≤1%. Incubations were terminated by the addition of chilled acetonitrile containing a stable isotope-labeled internal standard. […] Samples were analyzed by liquid chromatography with tandem mass spectrometry (LC-MS/MS). Analyte concentrations were quantified by LC-MS/MS and interpolated from standard curves of authentic analyte. […] Activities were calculated based on analyte concentration, incubation time, and protein concentration. Enzymatic activity (pmol/minute/mg protein) was expressed as the formation of the analyte per final protein concentration per incubation time. Activity remaining was expressed as the enzymatic activity at each concentration point of the test article normalized by the solvent control mean activity. […]

CYP3A4 = CYP3A4 (Homo sapiens, UniProt P08684); assay: Ki determination in pooled human liver microsomes, midazolam 1'-hydroxylase (Example 5); assay type: in vitro ADME
Method: as §1

CYP2C8 [4] = biological target: T1, CYP2C8; assay: Example 2 Part C: effect of strong CYP2C8 inhibitor gemfibrozil on PK of tucatinib; assay type: in vivo; parameters: endogenous in cells; host or cells: healthy human subjects, in vivo; details: tucatinib 300 mg single dose in combination with gemfibrozil vs tucatinib alone
Method: From Day 3 to Day 8, each subject received single oral doses of 600 mg of gemfibrozil (BID), twice daily (BID). On Day 7, each subject received a single oral dose of 300 mg of tucatinib. […] Other noncompartmental PK parameters may be reported. Additionally, blood samples were collected for determination of trough levels of gemfibrozil prior to morning dosing on the days indicated in FIG. 7.

[5] = following multiple doses of tucatinib

Sequence of CYP3A4 (P08684 whole entry): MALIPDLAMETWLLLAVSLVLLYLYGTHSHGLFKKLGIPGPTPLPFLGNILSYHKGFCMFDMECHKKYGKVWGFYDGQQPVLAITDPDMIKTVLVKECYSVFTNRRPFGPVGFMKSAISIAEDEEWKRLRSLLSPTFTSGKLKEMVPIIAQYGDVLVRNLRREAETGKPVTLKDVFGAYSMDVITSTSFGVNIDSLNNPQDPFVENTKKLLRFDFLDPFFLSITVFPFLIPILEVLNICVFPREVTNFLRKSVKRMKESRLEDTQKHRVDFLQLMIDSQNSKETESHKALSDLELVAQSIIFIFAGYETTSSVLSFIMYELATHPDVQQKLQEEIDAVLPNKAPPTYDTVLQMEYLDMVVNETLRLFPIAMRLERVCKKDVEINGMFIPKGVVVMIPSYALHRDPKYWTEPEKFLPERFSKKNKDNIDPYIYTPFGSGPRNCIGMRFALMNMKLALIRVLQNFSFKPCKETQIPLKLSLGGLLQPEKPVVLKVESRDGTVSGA
Sequence of bile salt export pump (BSEP) (O95342 whole entry, species assumed): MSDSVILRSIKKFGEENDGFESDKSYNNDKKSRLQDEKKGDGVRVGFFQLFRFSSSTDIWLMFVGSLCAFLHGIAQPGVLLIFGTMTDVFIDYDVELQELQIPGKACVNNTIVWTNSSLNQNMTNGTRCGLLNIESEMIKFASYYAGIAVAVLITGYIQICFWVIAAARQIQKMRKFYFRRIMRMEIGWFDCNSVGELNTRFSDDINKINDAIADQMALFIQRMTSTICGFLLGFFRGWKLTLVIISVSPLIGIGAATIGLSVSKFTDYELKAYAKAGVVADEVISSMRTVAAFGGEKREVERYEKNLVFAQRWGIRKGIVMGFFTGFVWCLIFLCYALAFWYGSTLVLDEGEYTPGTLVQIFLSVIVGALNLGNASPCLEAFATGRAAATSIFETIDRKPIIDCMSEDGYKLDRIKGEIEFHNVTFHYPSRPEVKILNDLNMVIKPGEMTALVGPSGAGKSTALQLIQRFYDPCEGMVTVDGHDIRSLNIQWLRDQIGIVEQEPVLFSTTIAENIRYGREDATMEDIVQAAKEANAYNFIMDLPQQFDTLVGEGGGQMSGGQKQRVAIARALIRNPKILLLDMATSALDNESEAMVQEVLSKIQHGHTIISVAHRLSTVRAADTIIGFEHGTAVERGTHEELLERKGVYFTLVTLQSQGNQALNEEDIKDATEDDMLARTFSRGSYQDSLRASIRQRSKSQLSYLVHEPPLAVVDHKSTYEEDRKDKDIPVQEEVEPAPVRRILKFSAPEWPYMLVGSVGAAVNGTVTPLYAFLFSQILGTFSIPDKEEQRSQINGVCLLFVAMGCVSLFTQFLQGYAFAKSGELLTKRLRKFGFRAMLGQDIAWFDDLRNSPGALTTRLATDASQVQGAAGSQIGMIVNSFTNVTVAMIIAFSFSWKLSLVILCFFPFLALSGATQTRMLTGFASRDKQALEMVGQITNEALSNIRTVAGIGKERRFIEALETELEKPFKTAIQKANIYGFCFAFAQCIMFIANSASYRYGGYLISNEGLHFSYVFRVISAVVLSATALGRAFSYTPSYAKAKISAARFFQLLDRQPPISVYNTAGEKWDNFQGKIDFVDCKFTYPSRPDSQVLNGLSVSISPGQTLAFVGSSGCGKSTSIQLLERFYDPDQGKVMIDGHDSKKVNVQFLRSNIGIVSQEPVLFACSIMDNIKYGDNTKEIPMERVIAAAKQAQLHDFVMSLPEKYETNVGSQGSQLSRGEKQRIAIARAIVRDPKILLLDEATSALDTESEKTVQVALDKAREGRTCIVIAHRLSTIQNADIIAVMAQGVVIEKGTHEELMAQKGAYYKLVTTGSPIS

For `Cc1cc(Nc2ncnc3ccc(NC4=NC(C)(C)CO4)cc23)ccc1Oc1ccn2ncnc2c1` [tucatinib], the IC50 [1] was 8480 nM, the Renal damage ([2]; conclusion of Example 1) was “does not cause renal damage” and the “Change in mean serum creatinine” value [2, 5] was “increase”. The “Measures of renal function including aGFR as assessed by iohexol and urine albumin levels” value [2, 5] was “not affected”, the “Inhibition mechanism, CYP2C8” value (CYP2C8 [3]) was “competitive inhibition” and the Ki (CYP2C8 [3]; marker substrate amodiaquine) was 170 nM. The “Inhibition mechanism, CYP3A4” value (CYP3A4) was “competitive inhibition”, the Ki (CYP3A4; marker substrate midazolam) was 810 nM and 805 nM and the “Geometric LS mean ratio (90% CI), AUC0-∞” value (CYP2C8 [4]) was 3.04 (2.66, 3.46). The “Geometric LS mean ratio (90% CI), AUClast” value (CYP2C8 [4]) was 2.99 (2.62, 3.41) and the “Geometric LS mean ratio (90% CI), Cmax” value (CYP2C8 [4]) was 1.62 (1.47, 1.79).

From patent US20220193076A1, “METHODS OF TREATING BREAST CANCER WITH TUCATINIB” (Seagen Inc., priority 2019, published 2022)
